Experimental data taken from ChEMBL document CHEMBL1127107, “The affinity of the excised binding domain of FK-506 for the immunophilin FKBP12” (Bioorg Med Chem Lett, 1993).

Target: Peptidyl-prolyl cis-trans isomerase FKBP1A (Homo sapiens, UniProt P62942)
Experiment: The compound was evaluated for its affinity to the binding domain of immunophilin FK506 binding protein 12

Chain of Peptidyl-prolyl cis-trans isomerase FKBP1A (P62942 whole entry, the tested form may be a part): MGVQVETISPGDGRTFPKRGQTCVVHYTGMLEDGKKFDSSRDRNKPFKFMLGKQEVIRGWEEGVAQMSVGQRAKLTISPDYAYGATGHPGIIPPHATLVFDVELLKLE

## COC[C@H]1O[C@@](O)(C(=O)C(=O)N2CCCC[C@H]2C(=O)OC/C(C)=C/[C@@H]2CC[C@@H](O)[C@H](OC)C2)[C@H](C)C[C@@H]1OC
  Kd: 10 nM
